Source: US11377442B2, “Small molecule agonists and antagonists of NR2F6 activity” (ZANDER THERAPEUTICS, INC., priority 2016, dated 2022)
Read-outs that look alike come from different tables or passages of the source. Values belong to the compound of their own block, whether it stands above or below them.

How the values were obtained:
Type in all cases: cell-based
NR2F6 = target: T1, NR2F6 (Homo sapiens, UniProt P10588); test: NR2F6 agonist screening, Firefly signal cmpd/DMSO
T1 construct: expressed in transfected cells; also transient transfection
T1 sequence (P10588 1-404): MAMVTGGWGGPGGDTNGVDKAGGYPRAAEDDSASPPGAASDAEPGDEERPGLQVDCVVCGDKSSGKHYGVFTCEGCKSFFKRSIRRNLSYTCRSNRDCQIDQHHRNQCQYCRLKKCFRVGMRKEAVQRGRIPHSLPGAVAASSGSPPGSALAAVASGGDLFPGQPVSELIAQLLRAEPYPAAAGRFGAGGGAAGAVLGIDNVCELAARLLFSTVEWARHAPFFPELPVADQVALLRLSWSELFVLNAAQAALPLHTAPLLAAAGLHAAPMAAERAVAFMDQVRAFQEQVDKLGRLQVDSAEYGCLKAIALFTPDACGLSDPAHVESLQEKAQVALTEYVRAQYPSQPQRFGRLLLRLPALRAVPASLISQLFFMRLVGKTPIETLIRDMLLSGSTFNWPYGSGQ

NR2F6 LBD = target: T2, NR2F6 LBD (Homo sapiens, UniProt P10588); test: NR2F6 LBD transient transfection; conditions: LBD
T2 construct: expressed in transfected cells
T2 sequence (P10588 165-393 limits assumed): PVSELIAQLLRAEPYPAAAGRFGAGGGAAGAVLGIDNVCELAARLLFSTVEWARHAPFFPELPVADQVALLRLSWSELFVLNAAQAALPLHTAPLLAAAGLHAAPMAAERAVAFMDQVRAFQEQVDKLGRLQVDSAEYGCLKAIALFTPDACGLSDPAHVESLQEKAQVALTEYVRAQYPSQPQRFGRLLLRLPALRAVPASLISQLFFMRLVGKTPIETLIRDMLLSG
How it was run: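 LBD-transfected cells treated at 40, 10, 2 and 0.5 μM (4 replicates); cytotoxicity measured in parallel, normalized to DMSO (0%) and zero signal (100%). Higher concentrations excluded where signal loss reflected toxicity.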

HEK293 pGL4 = test: Firefly_pGL signal, cmpd/DMSO (pGL4 control cells); conditions: Homo sapiens
Renilla = Renilla signal in NR2F6 agonist screening, cmpd/DMSO; conditions: Renilla, F4
[1] = HEK293, 0.5 uM, pGL4, read-out: Firefly pGL4, cmpd/DMSO (mean)
[2] = HEK293, 2 uM, pGL4, read-out: Firefly pGL4, cmpd/DMSO (mean)
[3] = HEK293, 10 uM, pGL4, read-out: Firefly pGL4, cmpd/DMSO (mean)
[4] = HEK293, 40 uM, pGL4, read-out: Firefly pGL4, cmpd/DMSO (mean)
[5] = HEK293, pGL4, 1% FBS, 0.5 uM, read-out: Firefly, pGL4, 1% FBS, cmpd/DMSO (mean)
[6] = HEK293, pGL4, 1% FBS, 2 uM, read-out: Firefly, pGL4, 1% FBS, cmpd/DMSO (mean)
[7] = HEK293, pGL4, 1% FBS, 10 uM, read-out: Firefly, pGL4, 1% FBS, cmpd/DMSO (mean)
[8] = HEK293, pGL4, 1% FBS, 40 uM, read-out: Firefly, pGL4, 1% FBS, cmpd/DMSO (mean)
[9] = HEK293, pGL4, 10% FBS, 0.5 uM, read-out: Firefly, pGL4, 10% FBS, cmpd/DMSO (mean)
[10] = HEK293, pGL4, 10% FBS, 2 uM, read-out: Firefly, pGL4, 10% FBS, cmpd/DMSO (mean)
[11] = HEK293, pGL4, 10% FBS, 10 uM, read-out: Firefly, pGL4, 10% FBS, cmpd/DMSO (mean)
[12] = HEK293, pGL4, 10% FBS, 40 uM, read-out: Firefly, pGL4, 10% FBS, cmpd/DMSO (mean)
[13] = read-out: Renilla, F4, cmpd/DMSO (mean)
[14] = 1% FBS, read-out: Renilla, F4, 1% FBS, cmpd/DMSO (mean)
[15] = 10% FBS, read-out: Renilla, F4, 10% FBS, cmpd/DMSO (mean)

Firefly F4, cmpd/DMSO (mean) (NR2F6; 0.5 uM): 1.2
Firefly F4, cmpd/DMSO (mean) (NR2F6; 2 uM): 1.9
Firefly F4, cmpd/DMSO (mean) (NR2F6; 10 uM): 2.8
Firefly F4, cmpd/DMSO (mean) (NR2F6; 40 uM): 2.6
F4, Firefly/Renilla for S/B(F4) > 3 (NR2F6; 1% FBS, 40 uM): 1.6
Firefly, F4/pGL4 for S/B(F4) > 3 (NR2F6; 1% FBS, 40 uM): 2.7
F4, Firefly/Renilla for S/B(F4) > 3 (NR2F6; 10% FBS, 40 uM): 2.3
Firefly, F4/pGL4 for S/B(F4) > 3 (NR2F6; 10% FBS, 40 uM): 3.7
Firefly, F4, 1% FBS, cmpd/DMSO (mean) (NR2F6; 1% FBS, 0.5 uM): 1.1
Firefly, F4, 1% FBS, cmpd/DMSO (mean) (NR2F6; 1% FBS, 2 uM): 0.9
Firefly, F4, 1% FBS, cmpd/DMSO (mean) (NR2F6; 1% FBS, 10 uM): 1.6
Firefly, F4, 1% FBS, cmpd/DMSO (mean) (NR2F6; 1% FBS, 40 uM): 3.2
Firefly, F4, 10% FBS, cmpd/DMSO (mean) (NR2F6; 10% FBS, 0.5 uM): 1.2
Firefly, F4, 10% FBS, cmpd/DMSO (mean) (NR2F6; 10% FBS, 2 uM): 1.2
Firefly, F4, 10% FBS, cmpd/DMSO (mean) (NR2F6; 10% FBS, 10 uM): 1.5
Firefly, F4, 10% FBS, cmpd/DMSO (mean) (NR2F6; 10% FBS, 40 uM): 5.0
Firefly LBD, cmpd/DMSO (mean) (NR2F6 LBD; 0.5 uM): 1.1
Firefly LBD, cmpd/DMSO (mean) (NR2F6 LBD; 2 uM): 1.2
Firefly LBD, cmpd/DMSO (mean) (NR2F6 LBD; 10 uM): 1.8
Firefly LBD, cmpd/DMSO (mean) (NR2F6 LBD; 40 uM): 1.9
Structure (SMILES): C[C@@H]1C[C@H](C)CN([C@H]2CS(=O)(=O)C[C@@H]2S(=O)(=O)c2ccccc2)C1 [Compound D112]
fold induction at 0.5 µM (HEK293 pGL4; [1]): 1
fold induction at 2 µM (HEK293 pGL4; [2]): 1.2
fold induction at 10 µM (HEK293 pGL4; [3]): 2.2
fold induction at 40 µM (HEK293 pGL4; [4]): 2.2
fold induction at 0.5 µM (HEK293 pGL4; [5]): 1.3
fold induction at 2 µM (HEK293 pGL4; [6]): 1.2
fold induction at 10 µM (HEK293 pGL4; [7]): 1.7
fold induction at 40 µM (HEK293 pGL4; [8]): 1.2
fold induction at 0.5 µM (HEK293 pGL4; [9]): 1.3
fold induction at 2 µM (HEK293 pGL4; [10]): 1
fold induction at 10 µM (HEK293 pGL4; [11]): 1.5
fold induction at 40 µM (HEK293 pGL4; [12]): 1.3
fold induction at 0.5 µM (Renilla; [13]): 1
fold induction at 2 µM (Renilla; [13]): 1.1
fold induction at 10 µM (Renilla; [13]): 1.3
fold induction at 40 µM (Renilla; [13]): 1.6
fold induction at 0.5 µM (Renilla; [14]): 1.1
fold induction at 2 µM (Renilla; [14]): 1.1
fold induction at 10 µM (Renilla; [14]): 1.4
fold induction at 40 µM (Renilla; [14]): 2
fold induction at 0.5 µM (Renilla; [15]): 1
fold induction at 2 µM (Renilla; [15]): 1
fold induction at 10 µM (Renilla; [15]): 1.3
fold induction at 40 µM (Renilla; [15]): 2.1

Firefly F4, cmpd/DMSO (mean) (NR2F6; 0.5 uM): 1.6
Firefly F4, cmpd/DMSO (mean) (NR2F6; 2 uM): 1.3
Firefly F4, cmpd/DMSO (mean) (NR2F6; 10 uM): 4.6
Firefly F4, cmpd/DMSO (mean) (NR2F6; 40 uM): 2.1
F4, Firefly/Renilla for S/B(F4) > 3 (NR2F6; 1% FBS, 10 uM): 2.0
Firefly, F4/pGL4 for S/B(F4) > 3 (NR2F6; 1% FBS, 10 uM): 1.3
F4, Firefly/Renilla for S/B(F4) > 3 (NR2F6; 10% FBS, 40 uM): 1.7
Firefly, F4/pGL4 for S/B(F4) > 3 (NR2F6; 10% FBS, 40 uM): 1.4
Firefly, F4, 1% FBS, cmpd/DMSO (mean) (NR2F6; 1% FBS, 0.5 uM): 0.9
Firefly, F4, 1% FBS, cmpd/DMSO (mean) (NR2F6; 1% FBS, 2 uM): 1.9
Firefly, F4, 1% FBS, cmpd/DMSO (mean) (NR2F6; 1% FBS, 10 uM): 3.1
Firefly, F4, 1% FBS, cmpd/DMSO (mean) (NR2F6; 1% FBS, 40 uM): 0.4
Firefly, F4, 10% FBS, cmpd/DMSO (mean) (NR2F6; 10% FBS, 0.5 uM): 1.2
Firefly, F4, 10% FBS, cmpd/DMSO (mean) (NR2F6; 10% FBS, 2 uM): 1.0
Firefly, F4, 10% FBS, cmpd/DMSO (mean) (NR2F6; 10% FBS, 10 uM): 2.3
Firefly, F4, 10% FBS, cmpd/DMSO (mean) (NR2F6; 10% FBS, 40 uM): 4.5
Firefly LBD, cmpd/DMSO (mean) (NR2F6 LBD; 0.5 uM): 1.4
Firefly LBD, cmpd/DMSO (mean) (NR2F6 LBD; 2 uM): 1.6
Firefly LBD, cmpd/DMSO (mean) (NR2F6 LBD; 10 uM): 3.6
Firefly LBD, cmpd/DMSO (mean) (NR2F6 LBD; 40 uM): 0.5
Structure (SMILES): O=S1(=O)C[C@H](NC2CCCCC2)[C@@H](S(=O)(=O)c2ccc(Cl)cc2)C1 [Compound D124]
fold induction at 0.5 µM (HEK293 pGL4; [1]): 1.4
fold induction at 2 µM (HEK293 pGL4; [2]): 1.5
fold induction at 10 µM (HEK293 pGL4; [3]): 3.1
fold induction at 40 µM (HEK293 pGL4; [4]): 0.7
fold induction at 0.5 µM (HEK293 pGL4; [5]): 1.1
fold induction at 2 µM (HEK293 pGL4; [6]): 1.6
fold induction at 10 µM (HEK293 pGL4; [7]): 2.4
fold induction at 40 µM (HEK293 pGL4; [8]): 0.8
fold induction at 0.5 µM (HEK293 pGL4; [9]): 1.2
fold induction at 2 µM (HEK293 pGL4; [10]): 1.4
fold induction at 10 µM (HEK293 pGL4; [11]): 2.2
fold induction at 40 µM (HEK293 pGL4; [12]): 3.2
fold induction at 0.5 µM (Renilla; [13]): 1.1
fold induction at 2 µM (Renilla; [13]): 1.2
fold induction at 10 µM (Renilla; [13]): 1.5
fold induction at 40 µM (Renilla; [13]): 1.8
fold induction at 0.5 µM (Renilla; [14]): 1.1
fold induction at 2 µM (Renilla; [14]): 1.2
fold induction at 10 µM (Renilla; [14]): 1.5
fold induction at 40 µM (Renilla; [14]): 1.6
fold induction at 0.5 µM (Renilla; [15]): 1
fold induction at 2 µM (Renilla; [15]): 1
fold induction at 10 µM (Renilla; [15]): 1.3
fold induction at 40 µM (Renilla; [15]): 2.6
